# Measured values reported in patent US7803757B2, “Peptides based on the sequence of human lactoferrin and their use” (PharmaSurgics in Sweden AB, priority 1998, dated 2010).
# Square brackets hold non-standard residues; d marks the D form. Ends that are not written are not given here. Nle = CCCC[C@H](N)C(=O)O
# Tests used:
# C. albicans [1] = experiment: microbe, parasite or virus in culture; assay type: cell-based; conditions: C. albicans, BHI diluted 1/100, twofold dilutions from 20 μg/ml
# Experimental: (§1) In the examples, the minimal microbicidal concentrations (MMC) and minimal inhibitory concentrations (MIC) were determined as follows, unless otherwise specified in the examples. Bacterial or fungal strains were cultured in BHI medium over night at 37° C. A volume of the culture was transferred to a new tube with BHI and incubated for two more hours. Thereafter the cells were spun down and the pellet was suspended in BHI medium diluted 1/100 (1% BHI). The concentration of bacterial or fungal cells was spectrophotometrically determined at 650 nm. The microbial concentrations were also determined by viable counts. Peptides serially diluted in 1% BHI by twofold or tenfold steps were added in triplicate to the wells of a microtiterplate (200 μl per well). The bacterial or fungal cell solutions were added in 10 μl volumes to give a final concentration of approximately 1-5×10^5 cells per ml in the well. The microplate was incubated at 37° C. in a humid chamber for two hours. Thereafter 5 μl was taken from each well and added as a drop onto a blood agar plate and incubated over night at 37° C. The microplate was incubated for another 20 hours at 37° C. and thereafter analysed spectrophotometrically at 650 nm in a microplate reader (Emax, Molecular Devices, USA). The concentration of peptide causing a 99% reduction of the inoculum after 2 hours of incubation was defined as the MMC99%. The MIC value was defined as the concentration giving no increase in the absorbance value above the background level after 20 hours of incubation.
# Also in this example one of the peptides according to the invention—this time the peptide with SEQ. ID. NO. 4, was compared to a conventional fungicide, amphotericin. The antifungal activity against C. albicans was studied. Twofold serial dilutions with a starting concentration of 20 μg/ml were used. BHI diluted 1/100 was used as growth medium.
# C. albicans (ATCC 64549) = experiment: microbe, parasite or virus in culture; conditions: for MMC99%: C. albicans ATCC 64549, 2×10^5 cells/ml, BHI diluted 1/100; for MIC: Candida albicans, ATCC64549
# Experimental: as §1
# In this example the fungicidal activity of one of the peptides according to the invention, the peptide with SEQ. ID. NO. 7, was compared to the conventional antifungal agents flucytosine and fluconazole, and also to human lactoferrin (hLF). The antifungal agents were tested on C. albicans (ATCC 64549) in a concentration of 2×10^5 cells/ml. The tests were performed in BHI medium diluted 1/100.
# C. albicans [2] = experiment: MMC99% of modified peptides, C. albicans (Example 26); assay type: cell-based; conditions: BHI diluted 1/100, pH approximately 6.7-6.9 (Table 22)
# Experimental: as §1
# (§2) In this example the fungicidal, and bactericidal effects of the different peptides obtained in example 22 were studied. C. albicans, E. coli and S. aureus, respectively, were incubated in BHI medium diluted 1/100, with a pH of approximately 6.7-6.9. The concentration of each peptide needed to kill 99% of the microorganisms (MMC99%) was determined.
# E. coli [3] = experiment: MMC99% of modified peptides, E. coli (Example 26); assay type: cell-based; conditions: BHI diluted 1/100, pH approximately 6.7-6.9 (Table 22)
# Experimental: as §1, §2
# S. aureus [4] = experiment: MMC99% of modified peptides, S. aureus (Example 26); assay type: cell-based; conditions: BHI diluted 1/100, pH approximately 6.7-6.9 (Table 22)
# Experimental: as §1, §2
# E. coli O6K5 = experiment: microbicidal activity MMC99%, E. coli O6K5 (Example 28); assay type: cell-based; conditions: E. coli O6K5 (Table 24)
# Experimental: as §1
# (§3) In this example the microbicidal activity of eight of the peptides according to the invention was studied, and tested against E. coli O6K5 and C. albicans.
# (§4) The concentration of each peptide needed to kill 99% of the microorganisms (MMC99%) was determined.
# C. albicans [5] = experiment: microbicidal activity MMC99%, C. albicans (Example 28); assay type: cell-based; conditions: C. albicans (Table 24)
# Experimental: as §1, §3, §4
# C. albicans [6] = experiment: MMC99% of modified peptides, C. albicans (Example 25); assay type: cell-based; conditions: BHI diluted 1/100, pH approximately 6.7-6.9 (Table 21)
# Experimental: as §1
# as §2, with “examples 18-21” for “example 22”
# E. coli [7] = experiment: MMC99% of modified peptides, E. coli (Example 25); assay type: cell-based; conditions: BHI diluted 1/100, pH approximately 6.7-6.9 (Table 21)
# Experimental: as §1
# as §2, with “examples 18-21” for “example 22”
# S. aureus [8] = experiment: MMC99% of modified peptides, S. aureus (Example 25); assay type: cell-based; conditions: BHI diluted 1/100, pH approximately 6.7-6.9 (Table 21)
# Experimental: as §1
# as §2, with “examples 18-21” for “example 22”
# E. coli O14 = experiment: bactericidal activity against E. coli O14, comparison with EP-A-0 629 347 peptides (Example 7); assay type: cell-based
# Experimental: (§5) In this example an in vitro test was performed to compare the bactericidal and fungicidal activity of the peptides according to the invention with peptides described in EP-A-0 629 347. The peptide according to the invention used was peptide 4, and the peptides according to EP-A-0 629 347 called Morinaga 10, Morinaga 11, Morinaga 12, and Morinaga 13.
# (§6) The peptides were incubated with E. coli O14 and Candida albicans. Two concentrations of C. albicans yeast cells were tested, 5·10^6 and 5·10^3 per ml. Different concentrations of the peptides were tested.
# (§7) After the incubation, samples were taken for bacterial plating. Serial dilutions of tenfold steps were used in the experiments marked with I in table 5 and of twofold steps in the experiments marked with II.
# Candida albicans = experiment: fungicidal activity against Candida albicans, comparison with EP-A-0 629 347 peptides (Example 7); assay type: cell-based; conditions: C. albicans, I (tenfold steps)
# Experimental: as §5, §6, §7
# C. albicans (ATCC64549) = assay type: cell-based
# Experimental: as §1
# (§8) C. albicans (ATCC64549) and E. coli O6, respectively, were incubated with the different peptides. The experiments were performed with 1, 10, 25 and 100 μg/ml of peptide.
# E. coli O6 = assay type: cell-based
# Experimental: as §1, §8
# [9] = system: C. albicans yeast cells (ATCC64549); experiment: killing and growth inhibition of C. albicans at pH 4.5 (Example 11); assay type: cell-based; design: key to C. albicans inhibition (OD650): + = no increase in OD650 is seen; − = OD650 continues to increase; conditions: pH 4.5, 1% BHI, 25 μg/ml of the peptide
# Experimental: C. albicans yeast cells (ATCC64549) were incubated for 2 hours at pH 4.5 in BHI medium diluted to 1% of the original concentration containing 25 µg/ml of the peptide. Thereafter the fungal solutions were cultured on blood agar plates. OD650 was measured after incubation during an additional 18 hours. The fungicidal effect of the peptides on C. albicans was determined as the ability of the peptide to kill 100% and 99%, respectively, of the fungus, while the growth inhibitory effect was determined by measuring the OD650. An inhibitory effect existed when no increase in OD650 was recorded.
# E. faecalis = experiment: killing of bacteria at fixed peptide concentration, E. faecalis (Example 12); assay type: cell-based; conditions: peptide 25 μg/ml
# Experimental: (§9) In this example, the peptides according to the invention were used to study the effect on the killing of different bacteria.
# (§10) The peptides were used at a concentration of 25 μg/ml.
# S. epidermis = experiment: killing of bacteria at fixed peptide concentration, S. epidermis (Example 12); assay type: cell-based; conditions: peptide 25 μg/ml
# Experimental: as §9, §10
# S. aureus [10] = experiment: killing of bacteria at fixed peptide concentration, S. aureus (Example 12); assay type: cell-based; conditions: peptide 25 μg/ml
# Experimental: as §9, §10
# K. pneumoniae = experiment: killing of bacteria at fixed peptide concentration, K. pneumoniae (Example 12); assay type: cell-based; conditions: peptide 25 μg/ml
# Experimental: as §9, §10
# P. aeruginosa = experiment: killing of bacteria at fixed peptide concentration, P. aeruginosa (Example 12); assay type: cell-based; conditions: peptide 25 μg/ml
# Experimental: as §9, §10
# multiresistant S. aureus = experiment: bactericidal activity, multiresistant S. aureus (Example 18); assay type: cell-based; conditions: multiresistant S. aureus 5.0×10^5 per ml
# Experimental: In this example the bactericidal activity of two of the peptides according to the invention was studied in a test with a multiresistant S. aureus. A bacterial solution with a concentration of 5.0×10^5 S. aureus bacterial per ml was used. The concentration of each peptide needed to kill 99% of the bacteria (MMC99%) was determined after 2 hours and after 24 hours of incubation at 37° C.
# [11] = E. coli O14, I: serial dilutions of tenfold steps
compound,measurement,setting,value
"C[C@@H]1[C@H](O)[C@@H](C)/C=C/C=C/C=C/C=C/C=C/C=C/C=C/[C@H](O[C@@H]2O[C@H](C)[C@@H](O)[C@H](N)[C@@H]2O)C[C@@H]2O[C@](O)(C[C@@H](O)C[C@@H](O)[C@H](O)CC[C@@H](O)C[C@@H](O)CC(=O)O[C@H]1C)C[C@H](O)[C@H]2C(=O)O [Amphotericin, amphotericin, reference compound]",MMC99%,C. albicans [1],2.5 µg/mL
same,MIC,"C. albicans [1]; Candida albicans, read-out: MIC",0.6 µg/mL
"OC(Cn1cncn1)(Cn1cncn1)c1ccc(F)cc1F [Fluconazole, fluconazole, reference compound]",MMC99%,C. albicans (ATCC 64549),>500 µg/mL
same,MIC,C. albicans (ATCC 64549),> 500 µg/mL
"Nc1[nH]c(=O)ncc1F [Flucytosine, flucytosine, reference compound]",MMC99%,C. albicans (ATCC 64549),>500 µg/mL
same,MIC,C. albicans (ATCC 64549),250 µg/mL
C-F-A-L-K-K-A-M-K-K-V-R (CFALKKAMKKVR) [SEQ. ID. NO. 96],MMC99%,C. albicans [2],12
same,MMC99%,E. coli [3],6
same,MMC99%,S. aureus [4],12
C-F-A-W-K-R-N-M-R-K-V-R (CFAWKRNMRKVR) [SEQ. ID. NO. 93],MMC99%,C. albicans [2],12
same,MMC99%,E. coli [3],6
same,MMC99%,S. aureus [4],6
same,MMC99%,E. coli O6K5,5
same,MMC99%,C. albicans [5],5
C-F-A-W-Q-R-A-M-R-K-V-R (CFAWQRAMRKVR) [SEQ. ID. NO. 94],MMC99%,C. albicans [2],12
same,MMC99%,E. coli [3],6
same,MMC99%,S. aureus [4],6
C-F-Q-L-Q-K-N-M-K-K-V-R (CFQLQKNMKKVR) [SEQ. ID. NO. 95],MMC99%,C. albicans [2],12
same,MMC99%,E. coli [3],6
same,MMC99%,S. aureus [4],6
C-F-Q-W-K-R-N-M-R-K-V-R (CFQWKRNMRKVR) [SEQ. ID. NO. 91],MMC99%,C. albicans [2],6
same,MMC99%,E. coli [3],6
same,MMC99%,S. aureus [4],6
same,MMC99%,E. coli O6K5,5
same,MMC99%,C. albicans [5],5
C-F-Q-W-Nle-R-N-M-R-K-V-R (CFQW[Nle]RNMRKVR) [SEQ. ID. NO. 88],MMC99%,C. albicans [6],6
same,MMC99%,E. coli [7],12
same,MMC99%,S. aureus [8],3.5
same,MMC99%,E. coli O6K5,5
same,MMC99%,C. albicans [5],10
F-Q-W-Q-R [Morinaga 11],Concentration of agent for 100% killing,E. coli O14; [11],>500 µg/mL
same,Concentration of agent for 100% killing,Candida albicans; 5 · 10^3 yeast cells per ml,>2000 µg/mL
same,Concentration of agent for 100% killing,Candida albicans; 5 · 10^6 yeast cells per ml,>2000 µg/mL
F-Q-W-Q-R-N (FQWQRN) [Morinaga 10],Concentration of agent for 100% killing,E. coli O14; [11],>500 µg/mL
same,Concentration of agent for 100% killing,"E. coli O14; E. coli O14, II: serial dilutions of twofold steps",1000 µg/mL
same,Concentration of agent for 100% killing,Candida albicans; 5 · 10^3 yeast cells per ml,>2000 µg/mL
same,Concentration of agent for 100% killing,Candida albicans; 5 · 10^6 yeast cells per ml,>2000 µg/mL
KCFQWQRNMRKVR [Peptide 48],MIC,C. albicans (ATCC64549); ATCC64549,10 µg/mL
same,MMC99%,"C. albicans (ATCC64549); C. albicans, tested at 1, 10, 25 and 100 μg/ml of peptide",10 µg/mL
same,MMC99%,"E. coli O6; E. coli O6, tested at 1, 10, 25 and 100 μg/ml of peptide",10 µg/mL
same,MIC,E. coli O6; O6,10 µg/mL
same,C. albicans inhibition (OD650),[9]; OD650 after an additional 18 hours,+
same,C. albicans killing: 99%,[9]; 2 hours,+ (+ = 100/99% of the bacteria are killed)
same,C. albicans killing: 100%,[9]; 2 hours,+ (+ = 100/99% of the bacteria are killed)
same,killing of bacteria: E. faecalis,E. faecalis,+ (+ = 99% of the bacteria are killed)
same,killing of bacteria: S. epidermis,S. epidermis,+ (+ = 99% of the bacteria are killed)
same,killing of bacteria: S. aureus,S. aureus [10],+ (+ = 99% of the bacteria are killed)
same,killing of bacteria: K. pneumoniae,K. pneumoniae,+ (+ = 99% of the bacteria are killed)
same,killing of bacteria: P. aeruginosa,P. aeruginosa,+ (+ = 99% of the bacteria are killed)
same,MMC99%,multiresistant S. aureus; 2 hours at 37° C.,5.0 µg/mL
same,MMC99%,multiresistant S. aureus; 24 hours at 37° C.,≦0.32 μg/ml
Q-W-Q-R [Morinaga 12],Concentration of agent for 100% killing,E. coli O14; [11],>500 µg/mL
same,Concentration of agent for 100% killing,Candida albicans; 5 · 10^3 yeast cells per ml,>2000 µg/mL
same,Concentration of agent for 100% killing,Candida albicans; 5 · 10^6 yeast cells per ml,>2000 µg/mL
SEQ. ID. NO. 97: listed under the third and fourth embodiments; sequence only in the appended sequence listing (CFALKKAMKKVR),MMC99%,C. albicans [2],12
same,MMC99%,E. coli [3],6
same,MMC99%,S. aureus [4],6
W-Q-R [Morinaga 13],Concentration of agent for 100% killing,E. coli O14; [11],>500 µg/mL
same,Concentration of agent for 100% killing,Candida albicans; 5 · 10^3 yeast cells per ml,>2000 µg/mL
same,Concentration of agent for 100% killing,Candida albicans; 5 · 10^6 yeast cells per ml,>2000 µg/mL
